Data: PMC10970644, “Molecular Pharmacology of Gelsemium Alkaloids on Inhibitory Receptors” (International Journal of Molecular Sciences, 2024)
“Also recorded” adds a separate entry of the source.

Legend:
α1 GlyR = target: T1, α1 GlyR (Rattus norvegicus, UniProt P07727); experiment: cell-based; format: cell-based
T1 construct: expressed in transfected cells; host or cells: HEK293 (ATCC CRL-1573)
T1 sequence (P07727 29-457): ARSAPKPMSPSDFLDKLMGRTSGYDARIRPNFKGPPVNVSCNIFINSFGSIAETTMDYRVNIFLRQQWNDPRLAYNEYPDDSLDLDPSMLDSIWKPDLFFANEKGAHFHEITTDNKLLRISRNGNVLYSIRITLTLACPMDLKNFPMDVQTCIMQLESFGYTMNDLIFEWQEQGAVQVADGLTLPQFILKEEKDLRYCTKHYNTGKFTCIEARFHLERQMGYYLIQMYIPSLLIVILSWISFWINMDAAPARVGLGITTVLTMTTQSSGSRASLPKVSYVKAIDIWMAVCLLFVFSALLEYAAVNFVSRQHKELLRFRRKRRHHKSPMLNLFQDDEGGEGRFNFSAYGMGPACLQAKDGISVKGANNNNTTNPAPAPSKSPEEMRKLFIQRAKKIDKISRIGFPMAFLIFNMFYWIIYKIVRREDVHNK
Procedure: (§1) The cells were transfected with plasmids encoding the following proteins: (i). rat GlyR α (1, 2, 3) subunits alone or combined with rat β subunits (Uniprot Accession Numbers: Q546L7, P22771, P20236, P20781); and (ii). rat GABAAR α1 combined with rat β2 and γ2 subunits (Uniprot Accession Numbers: P62813, P63138, P18508). The EGFP expression was used as a marker of successful protein expression. The transfection was performed using Lipofectamine 2000 (Invitrogen, ThermoFisher, Carlsbad, CA, USA) using the fabricant protocol. The plasmids used to express GlyRs and GABAARs have been previously described. To track the successful expression of GlyR β subunits and the GABAA γ2 or β2 subunit, these proteins were subcloned in the pIRES2-EGFP vector. The transfection ratio to obtain β-containing GlyRs was 1:5 of α:β, while the expression of γ2-containing GABAA receptors was 1:2:5 of α:β:γ2 [14, 15]. Chimeric GlyRs were described in a previous report. Site directed mutagenesis was performed by Charm Gene Science Mutagenex LLC. (Cumming, GA, USA). All the constructs were checked by full-length sequencing (SNPSaurus, Eugene, OR, USA).
(§2) In brief, patch electrodes (3–4 MΩ) were pulled from borosilicate glasses in a PC-100 puller (Narishige, Tokyo, Japan); then, they were filled with an intracellular solution, which contained (in mM) 120 CsCl, 8 EGTA, 10 HEPES (pH 7.4), 4 MgCl2, 0.5 GTP, and 2 ATP. The extracellular solution contained (in mM) 140 NaCl, 5.4 KCl, 2.0 CaCl2, 1.0 MgCl2, 10 HEPES (pH 7.4), and 10 glucose. Whole-cell patch-clamp recordings were performed at −60 mV with an Axoclamp 200B (Molecular Devices, Sunnyvale, CA, USA) or with HEKA EPC-10 (HEKA Elektronik GmbH, Reutlingen, Germany) amplifiers. […] Brief (3–5 s) pulses of agonist together with alkaloids were applied to cells. Stock solutions of the alkaloids were prepared in high purity distilled water. Aliquots of these stock solutions were diluted in reservoirs containing extracellular solution. […] The concentration–response curve parameters for the alkaloid inhibition (IC50, nH, and the maximal current inhibition) were obtained from the fitted curve of normalized concentration–response data points to the equation Iagonist = Imax (agonist)nH/((agonist)nH + (EC50)nH). The IC50 curves are best-fit mean ± SE from pooled data. […] The inhibition constant (Ki) was calculated using the Cheng–Prusoff equation (Ki = IC50/((2 + ([Agonist]/EC50)^nH)^1/nH − 1). The concentration of agonist corresponds to the sub-saturating agonist concentration used to obtain the IC50 for each alkaloid on a given GlyR subtype.

α2 GlyR = target: T2, α2 GlyR (Rattus norvegicus, UniProt P22771); experiment: cell-based; format: cell-based
T2 construct: The cells were transfected with plasmids encoding the following proteins; expressed in transfected cells; host or cells: HEK293 (ATCC CRL-1573)
T2 sequence (P22771 28-452): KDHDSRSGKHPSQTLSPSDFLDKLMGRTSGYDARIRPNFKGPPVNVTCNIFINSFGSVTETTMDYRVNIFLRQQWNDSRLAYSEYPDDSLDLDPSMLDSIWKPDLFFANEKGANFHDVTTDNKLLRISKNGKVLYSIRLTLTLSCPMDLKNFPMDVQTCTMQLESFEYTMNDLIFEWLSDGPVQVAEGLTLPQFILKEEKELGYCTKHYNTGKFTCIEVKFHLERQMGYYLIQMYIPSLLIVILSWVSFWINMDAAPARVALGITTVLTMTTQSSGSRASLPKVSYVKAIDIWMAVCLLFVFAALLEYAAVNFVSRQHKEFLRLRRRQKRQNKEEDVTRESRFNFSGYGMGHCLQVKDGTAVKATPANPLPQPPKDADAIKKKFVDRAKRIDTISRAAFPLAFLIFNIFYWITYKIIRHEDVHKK
Procedure: as §1, §2

α2β GlyR = target: T3, α2β GlyR (Rattus norvegicus, UniProt P20781+P22771); experiment: cell-based; format: cell-based
T3 construct: The cells were transfected with plasmids encoding the following proteins; expressed in transfected cells; host or cells: HEK293 (ATCC CRL-1573)
T3 sequence (P20781 23-496, one chain of several): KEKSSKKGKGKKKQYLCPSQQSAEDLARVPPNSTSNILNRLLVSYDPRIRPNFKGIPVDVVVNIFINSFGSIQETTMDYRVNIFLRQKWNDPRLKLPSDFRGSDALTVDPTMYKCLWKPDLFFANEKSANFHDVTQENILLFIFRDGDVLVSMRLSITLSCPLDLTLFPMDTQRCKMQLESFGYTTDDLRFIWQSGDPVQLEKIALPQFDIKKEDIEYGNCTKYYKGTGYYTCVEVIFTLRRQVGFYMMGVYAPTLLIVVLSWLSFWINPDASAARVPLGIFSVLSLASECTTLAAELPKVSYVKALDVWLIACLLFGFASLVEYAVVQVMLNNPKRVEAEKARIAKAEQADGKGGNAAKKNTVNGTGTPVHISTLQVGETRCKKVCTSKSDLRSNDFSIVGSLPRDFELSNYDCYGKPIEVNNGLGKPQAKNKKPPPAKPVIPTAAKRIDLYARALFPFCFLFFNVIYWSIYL
Procedure: as §1, §2

α3 GlyR = target: T4, α3 GlyR (Rattus norvegicus, UniProt P24524); experiment: cell-based; format: cell-based
T4 construct: expressed in transfected cells; host or cells: HEK293 (ATCC CRL-1573)
T4 sequence (P24524 34-464): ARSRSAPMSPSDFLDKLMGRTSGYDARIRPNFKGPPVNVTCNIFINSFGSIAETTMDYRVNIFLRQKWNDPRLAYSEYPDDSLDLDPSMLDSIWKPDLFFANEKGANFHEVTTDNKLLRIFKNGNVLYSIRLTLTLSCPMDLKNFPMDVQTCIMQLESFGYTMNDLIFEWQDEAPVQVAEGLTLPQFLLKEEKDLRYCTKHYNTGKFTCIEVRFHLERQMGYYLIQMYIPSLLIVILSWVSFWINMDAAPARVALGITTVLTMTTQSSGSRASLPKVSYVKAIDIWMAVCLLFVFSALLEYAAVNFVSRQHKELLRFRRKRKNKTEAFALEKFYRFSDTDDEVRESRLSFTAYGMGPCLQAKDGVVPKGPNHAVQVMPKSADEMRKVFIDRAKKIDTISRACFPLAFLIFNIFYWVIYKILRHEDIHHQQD
Procedure: as §1, §2

α1β GlyR = target: T5, α1β GlyR (Rattus norvegicus, UniProt P07727+P20781); experiment: cell-based
T5 construct: The cells were transfected with plasmids encoding the following proteins; expressed in transfected cells; host or cells: HEK293 (ATCC CRL-1573)
T5 sequence (P20781 23-496, one chain of several): as the sequence (P20781 23-496, one chain of several) above
Procedure: as §1, §2

α3β GlyR = target: T6, α3β GlyR (Rattus norvegicus, UniProt P20781+P24524); experiment: cell-based; format: cell-based
T6 construct: The cells were transfected with plasmids encoding the following proteins; expressed in transfected cells; host or cells: HEK293 (ATCC CRL-1573)
T6 sequence (P20781 23-496, one chain of several): as the sequence (P20781 23-496, one chain of several) above
Procedure: as §1
as §2, with “The” for “The inhibition constant (Ki) was calculated using the Cheng–Prusoff equation (Ki = IC50/((2 + ([Agonist]/EC50)^nH)^1/nH − 1). The”

α1β2γ2 GABAARs = target: T7, α1β2γ2 GABAARs (Rattus norvegicus, UniProt P62813+P63138); format: cell-based; conditions: 50 μM alkaloid; 1 μM GABA
T7 construct: The cells were transfected with plasmids encoding the following proteins; expressed in transfected cells; host or cells: HEK293 (ATCC CRL-1573)
T7 sequence (P62813 28-455): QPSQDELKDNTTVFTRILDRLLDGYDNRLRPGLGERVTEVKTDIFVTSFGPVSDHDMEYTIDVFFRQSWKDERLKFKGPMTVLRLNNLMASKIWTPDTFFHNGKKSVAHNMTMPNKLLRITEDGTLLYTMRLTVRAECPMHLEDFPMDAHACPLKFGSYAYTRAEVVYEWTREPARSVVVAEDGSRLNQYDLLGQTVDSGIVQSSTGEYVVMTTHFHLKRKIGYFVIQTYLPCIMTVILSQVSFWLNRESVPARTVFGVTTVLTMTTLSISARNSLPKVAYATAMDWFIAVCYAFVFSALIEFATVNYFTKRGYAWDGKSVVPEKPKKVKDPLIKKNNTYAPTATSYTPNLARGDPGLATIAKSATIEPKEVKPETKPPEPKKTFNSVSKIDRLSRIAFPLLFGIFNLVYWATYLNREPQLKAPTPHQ
T7 sequence (P63138 26-474): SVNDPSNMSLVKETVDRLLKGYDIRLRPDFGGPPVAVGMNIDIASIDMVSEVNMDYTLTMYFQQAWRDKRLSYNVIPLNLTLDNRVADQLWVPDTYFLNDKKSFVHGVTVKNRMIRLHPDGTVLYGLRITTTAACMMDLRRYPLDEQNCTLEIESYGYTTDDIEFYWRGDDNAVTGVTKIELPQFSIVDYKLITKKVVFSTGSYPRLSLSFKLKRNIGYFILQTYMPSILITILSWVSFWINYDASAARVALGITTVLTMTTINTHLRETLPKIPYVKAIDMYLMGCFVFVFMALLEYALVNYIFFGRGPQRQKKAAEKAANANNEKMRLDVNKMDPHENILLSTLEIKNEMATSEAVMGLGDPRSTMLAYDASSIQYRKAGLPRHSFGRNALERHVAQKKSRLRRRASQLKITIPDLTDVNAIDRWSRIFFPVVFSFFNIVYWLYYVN
T7 sequence (P18508 39-466 partner): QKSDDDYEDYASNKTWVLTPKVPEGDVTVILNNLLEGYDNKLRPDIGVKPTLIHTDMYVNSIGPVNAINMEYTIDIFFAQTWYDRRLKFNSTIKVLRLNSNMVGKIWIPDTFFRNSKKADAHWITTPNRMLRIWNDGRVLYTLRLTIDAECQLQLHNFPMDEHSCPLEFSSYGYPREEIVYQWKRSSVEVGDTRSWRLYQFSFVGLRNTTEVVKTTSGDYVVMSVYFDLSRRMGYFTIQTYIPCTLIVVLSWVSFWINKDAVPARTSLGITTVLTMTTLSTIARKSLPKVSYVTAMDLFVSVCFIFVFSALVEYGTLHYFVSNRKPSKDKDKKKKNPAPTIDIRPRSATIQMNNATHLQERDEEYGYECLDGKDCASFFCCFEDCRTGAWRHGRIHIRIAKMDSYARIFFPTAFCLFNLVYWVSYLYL
Procedure: as §1
as §2, with “The” for “The inhibition constant (Ki) was calculated using the Cheng–Prusoff equation (Ki = IC50/((2 + ([Agonist]/EC50)^nH)^1/nH − 1). The”

[1] = in vivo studies; cited from earlier work
[2] = percentage change of glycine-evoked current

## CCC1=N[C@H]2C[C@@]3(C(=O)N(OC)c4ccccc43)[C@H]3C[C@@H]1[C@@H]2CO3 [humantenmine]
α1 GlyR
  Maximal Modulation Concentration: 300 µM
α1 GlyR; 300 μM of the alkaloid
  modulation of glycine-evoked current: −19.2 ± 7.8%
α1 GlyR; concentration range of 10 μM to 300 μM
  modulation of α1GlyRs (in words): did not display any detectable activity; also recorded: did not significantly modulate
α1 GlyR; [2]
  Maximal Modulation: −19.2 ± 7.8%
α2 GlyR
  Maximal Modulation Concentration: 50 µM
α2 GlyR; [2]
  Maximal Modulation: 8.7 ± 9.6%
α2β GlyR
  Maximal Modulation Concentration: 50 µM
α2β GlyR; [2]
  Maximal Modulation: −10.3 ± 11.2%
α3 GlyR
  Maximal Modulation Concentration: 0.1 µM
α3 GlyR; [2]
  Maximal Modulation: −20.2 ± 10.7%
α1β GlyR
  Maximal Modulation Concentration: 0.01 µM
α1β GlyR; [2]
  Maximal Modulation: −7.33 ± 10.8%
α3β GlyR
  Maximal Modulation Concentration: 300 µM
α3β GlyR; [2]
  Maximal Modulation: −15.6 ± 3.8%
α1β2γ2 GABAARs
  modulation of GABAARs (in words): did not elicit any detectable alterations; also recorded: insensitive
[1]
  LD50: lower than 0.2 mg/kg
